Measurements as given in the supplement of paper PMC13380429.

How the values were obtained:
Details in all cases: 72 h
Calu-3 [1] = test: cell viability relative to DMSO; higher = less toxic
U2OS [2] = test: as above
Caco-2 [3] = test: as above
Vero E6 [4] = test: as above
HepG2 [5] = test: as above
Calu-3 [6] = test: relative viability EC50 (midpoint between 100% and the lowest measured viability); higher = less toxic
Vero E6 [7] = test: as above
HepG2 [8] = test: as above
Calu-3 [9] = test: drug sensitivity score (DSS) for viability; higher = more toxic; extreme values may be limits of the assay
U2OS [10] = test: as above
Caco-2 [11] = test: as above
Vero E6 [12] = test: as above
HepG2 [13] = test: as above
U2OS [14] = test: relative viability EC50 (midpoint between 100% and the lowest measured viability); higher = less toxic
Caco-2 [15] = test: as above

Row | Compound | cell viability (Calu-3 [1]; 1 nM) | cell viability (Calu-3 [1]; 10 nM) | cell viability (Calu-3 [1]; 100 nM) | cell viability (Calu-3 [1]; 1000 nM) | cell viability (Calu-3 [1]; 10000 nM) | cell viability (U2OS [2]; 1 nM) | cell viability (U2OS [2]; 10 nM) | cell viability (U2OS [2]; 100 nM) | cell viability (U2OS [2]; 1000 nM) | cell viability (U2OS [2]; 10000 nM) | cell viability (Caco-2 [3]; 1 nM) | cell viability (Caco-2 [3]; 10 nM) | cell viability (Caco-2 [3]; 100 nM) | cell viability (Caco-2 [3]; 1000 nM) | cell viability (Caco-2 [3]; 10000 nM) | cell viability (Vero E6 [4]; 1 nM) | cell viability (Vero E6 [4]; 10 nM) | cell viability (Vero E6 [4]; 100 nM) | cell viability (Vero E6 [4]; 1000 nM) | cell viability (Vero E6 [4]; 10000 nM) | cell viability (HepG2 [5]; 1 nM) | cell viability (HepG2 [5]; 10 nM) | cell viability (HepG2 [5]; 100 nM) | cell viability (HepG2 [5]; 1000 nM) | cell viability (HepG2 [5]; 10000 nM) | relative viability EC50 (Calu-3 [6]) | relative viability EC50 (Vero E6 [7]) | relative viability EC50 (HepG2 [8]) | drug sensitivity score (Calu-3 [9]) | drug sensitivity score (U2OS [10]) | drug sensitivity score (Caco-2 [11]) | drug sensitivity score (Vero E6 [12]) | drug sensitivity score (HepG2 [13]) | relative viability EC50 (U2OS [14]) | relative viability EC50 (Caco-2 [15])
1 | CCc1c2c(nc3ccc(OC(=O)N4CCC(N5CCCCC5)CC4)cc13)-c1cc3c(c(=O)n1C2)COC(=O)[C@]3(O)CC [irinotecan] | 103% | 94.7% | 93.7% | 69.3% | 47.5% | 104% | 97.4% | 98.1% | 88.7% | 59.1% | 95.1% | 91.6% | 95.5% | 90.9% | 61.5% | 94.3% | 97.4% | 95.6% | 95.8% | 75.2% | 95.4% | 99.2% | 76.9% | 37.5% | 21.7% | 0.679 µM | > 10 µM | 0.244 µM | 6.5 | 3.8 | 3.3 | 1.6 | 14.4 | – | –
2 | NC(=O)N1c2ccccc2CC(=O)c2ccccc21 [oxcarbazepine] | 96.1% | 93.6% | 82.6% | 105% | 95.1% | 101% | 100% | 101% | 96.7% | 99.1% | – | – | – | – | – | – | – | – | – | – | 90.8% | 92.3% | 115% | 90.7% | 87.5% | > 10 µM | – | > 10 µM | 0 | 0 | – | – | 0.5 | > 10 µM | –
3 | O=C(O)C[C@H](O)C[C@H](O)/C=C/c1c(C2CC2)nc2ccccc2c1-c1ccc(F)cc1 [pitavastatin] | 103% | 98.1% | 99.2% | 84.7% | 56.4% | 98.7% | 97% | 100% | 68.3% | 9.6% | 103% | 93.6% | 97.3% | 89.4% | 70.3% | 93.9% | 105% | 88.7% | 78% | 6.4% | 88.5% | 97.1% | 82% | 95.7% | 57.1% | – | 1.62 µM | – | 4.4 | 9.4 | 2.4 | 8.5 | 2.9 | 1.28 µM | –
4 | CC[C@H](CO)Nc1nc(NCc2ccccc2)c2ncn(C(C)C)c2n1 [roscovitine] | – | – | – | – | – | – | – | – | – | – | – | – | – | – | – | – | – | – | – | – | – | – | – | – | – | – | – | – | 0 | 0 | – | 0 | 0 | – | –
5 | COc1ccc(-c2sc(NC(=O)C(C)(C)C)nc2C)cc1S(=O)(=O)Nc1ccc(O)cc1 [PI4KIII-beta-inhibitor-1] | 115% | 102% | 102% | 91.2% | 66.9% | 94.9% | 99.6% | 96.7% | 93.1% | 79.1% | 95.6% | 97% | 91.1% | 90.7% | 74.2% | 102% | 96.4% | 92.9% | 96.1% | 88.8% | 105% | 103% | 101% | 90% | 87.6% | – | > 10 µM | > 10 µM | 2.8 | 1.1 | 1.8 | 0 | 0.5 | > 10 µM | –
6 | CO[C@@H]1[C@@H](O[C@@H]2O[C@H](C)[C@@H](O[C@H]3C[C@@](C)(O)[C@@H](OC(=O)CC(C)C)[C@H](C)O3)[C@H](N(C)C)[C@H]2O)[C@@H](CC=O)C[C@@H](C)[C@@H](O)/C=C/C=C/C[C@@H](C)OC(=O)C[C@H]1OC(C)=O [josamycin] | 103% | 102% | 106% | 98.2% | 106% | 101% | 89.3% | 97.5% | 101% | 100% | 101% | 94.2% | 100% | 107% | 68% | 95% | 98.6% | 105% | 92.1% | 99.1% | 107% | 105% | 117% | 95% | 74.4% | > 10 µM | > 10 µM | – | 0 | 0 | 1.1 | 0 | 1.7 | > 10 µM | –
7 | OC(CNCC(O)C1CCc2cc(F)ccc2O1)C1CCc2cc(F)ccc2O1 (stereo not drawn) [nebivolol] | 94.9% | 93.2% | 103% | 105% | 92.7% | 97.2% | 94.3% | 93.9% | 99.8% | 99.6% | 114% | 102% | 95.1% | 89.7% | 72.8% | 100% | 102% | 91.7% | 94.2% | 95.1% | 107% | 112% | 110% | 98.4% | 88.9% | > 10 µM | > 10 µM | > 10 µM | 0 | 0 | 1.9 | 0 | 0 | > 10 µM | –
8 | CS[C@H]1SC[C@H]2C(=O)N(C)[C@@H](C(C)C)C(=O)OC[C@@H](NC(=O)c3cnc4ccccc4n3)C(=O)N[C@@H](C)C(=O)N(C)[C@@H]1C(=O)N(C)[C@@H](C(C)C)C(=O)OC[C@@H](NC(=O)c1cnc3ccccc3n1)C(=O)N[C@@H](C)C(=O)N2C [echinomycin] | 57.6% | 16% | 27.3% | 35.5% | 36.2% | 54.1% | 0.5% | 0.6% | 2.3% | 1.8% | 63.1% | 54.7% | 57.2% | 63.2% | 75.9% | 104% | 90.4% | 2.1% | 4.6% | 1% | 77.1% | 9.7% | 6.7% | 7% | 7.7% | < 0.001 µM | 0.024 µM | 0.0018 µM | 41.3 | 47.9 | 22.8 | 31.7 | 42.9 | 0.0011 µM | –
9 | COc1cc2c(cc1-c1c(C)noc1C)ncc1[nH]c(=O)n([C@H](C)c3ccccn3)c12 [I-BET151] | 97.4% | 99.5% | 114% | 75% | 65.3% | 97.4% | 95.6% | 94.4% | 71.3% | 44.3% | 104% | 87.1% | 89.8% | 81% | 56% | 104% | 105% | 94.6% | 40.5% | 13% | 104% | 99.7% | 91.9% | 60.3% | 33.6% | – | 0.607 µM | 0.671 µM | 4.5 | 6.3 | 4.9 | 12.2 | 8.6 | 0.89 µM | –
10 | CC(C)(C)n1nc(-c2ccc(Cl)cc2)c2c(N)ncnc21 [PP-2] | 104% | 104% | 84.9% | 87% | 37% | 93.4% | 98.4% | 96.7% | 89.7% | 77.3% | 92.3% | 98.6% | 100% | 88.2% | 54.2% | 99.4% | 93.5% | 102% | 95.6% | 47% | 107% | 98% | 92.6% | 103% | 90.7% | 1.77 µM | 2.49 µM | > 10 µM | 5.4 | 1.4 | 4.2 | 3.5 | 0 | > 10 µM | –
11 | O=C(O)CCCO [SODIUM OXYBATE] | 97.3% | 99% | 94.7% | 115% | 112% | 103% | 101% | 103% | 96.4% | 100% | – | – | – | – | – | 93.6% | 100% | 99.1% | 102% | 87.2% | 82.4% | 105% | 92.8% | 90.8% | 110% | > 10 µM | > 10 µM | > 10 µM | 0 | 0 | – | 0 | 0 | > 10 µM | –
12 | CN(C)CCCN1c2ccccc2Sc2ccc(Cl)cc21 [chlorpromazine] | 110% | 97% | 109% | 102% | 73.8% | 98.9% | 100% | 93.6% | 102% | 86.2% | 96.3% | 97.3% | 96.5% | 105% | 88.9% | 98.5% | 98.8% | 97.4% | 99.6% | 56.9% | 96.5% | 102% | 105% | 91.3% | 52.4% | – | – | – | 0.9 | 0.1 | 0 | 2.2 | 3.9 | > 10 µM | > 10 µM
13 | Cc1cc(F)c(Nc2ncnc3cc(OCc4ccccc4)ccc23)cc1O | 104% | 95.1% | 89.4% | 104% | 76.9% | 97.9% | 101% | 96.8% | 102% | 72.9% | 101% | 96.6% | 88.4% | 79.4% | 74% | 99.9% | 103% | 99.3% | 96.2% | 84% | 105% | 95.5% | 106% | 100% | 85.5% | > 10 µM | > 10 µM | > 10 µM | 0.6 | 0.9 | 4 | 0.7 | 0.2 | – | –
14 | CC(=O)O[C@]1(C(C)=O)CC[C@H]2[C@@H]3C=C(C)C4=CC(=O)CC[C@]4(C)[C@H]3CC[C@@]21C [megestrol-acetate] | – | – | – | – | – | – | – | – | – | – | – | – | – | – | – | – | – | – | – | – | – | – | – | – | – | – | – | – | 0 | 0 | – | 0 | 0 | – | –
15 | COc1cc2ncnc(Nc3ccc(F)c(Cl)c3)c2cc1OCCCN1CCOCC1 [gefitinib] | – | – | – | – | – | – | – | – | – | – | – | – | – | – | – | – | – | – | – | – | – | – | – | – | – | 0.414 µM | – | – | 13.1 | 2.1 | 4.1 | 9.3 | 3.9 | – | –
16 | CCN1CCCC(OC(=O)C(c2ccccc2)c2ccccc2)C1 (stereo not drawn) [piperidolate] | 99.1% | 95.2% | 102% | 105% | 89.3% | 98.4% | 100% | 100% | 100% | 92.4% | 89% | 90.3% | 70.2% | 79.2% | 77.9% | 98.8% | 98.7% | 98% | 98% | 98.2% | 105% | 89.1% | 115% | 97.8% | 110% | > 10 µM | > 10 µM | > 10 µM | 0 | 0 | 7 | 0 | 0 | > 10 µM | –
